Laboratory results published in patent US20240293425A1, “BZD-1 AS A CHEMO[…] CANCER” (University of Cincinnati, priority 2021, published 2024).
Converted amounts (≈) assume the structure as drawn.

Key:
[1] = test system: methylated and unmethylated GBM cells; assay: In vitro cytotoxicity of GBM cells, BZD-1 and TMZ single or combined; type: cell-based
[2] = test system: rats; assay: Visible adverse effects after single dose i.p.; details: 12 hrs after single dose i.p., co-solvent formulation
[3] = test system: H1792 cells; assay: Clonogenic assay, BZD-1 with or without 0.5 nM DTX; type: cell-based, human; details: BZD-1 + 0.5 nM DTX, 12 days
Method: 300 H1792 cells/well in 3 mL of medium were plated in a 6 well plate and allowed to attach for 36 hrs. A large volume of fresh medium containing 0.5 nM Docetaxel (DTX) was prepared from 1 mM stock in DMSO. For BZD-1 dilution, either fresh medium or +0.5 nM DTX containing medium was used. Medium on cells was then aspirated and replaced by 3 mL of vehicle (DMSO)/Drug containing media in triplicate for each control/drug dilution. Cells were returned to the incubator for 12 days. For staining, medium was aspirated, cells were washed 1× with PBS and fixed 15 minutes with methanol at room temperature. Methanol was then removed, and crystal violet staining solution added to cells and incubated 30 minutes at room temperature. Plates were then washed extensively with tap water, dried and pictured.

[4] = Stability of co-solvent formulation at room temperature; type: physicochemical
[5] = Metabolic stability in human liver microsomes; details: within 1 hr
[6] = Solubility in co-solvent injectable formulation; details: co-solvent based injectable formulation, aqueous with cosolvent or surfactant or cyclodextrin
[7] = Pharmacokinetics, brain penetration
[8] = test system: H1792 human lung cancer cells; assay: MTS proliferation assay, BZD-1 alone; type: cell-based
Method: 10^3 H1792 cells/well in 100 uL of medium were plated in a 96 well plate and allowed to attach for 24 hrs. The next day, BZD-1 (stock, 40 mM in DMSO) was first diluted to 40 μM in fresh cell culture medium, then serially 2-fold diluted. Medium on cells was then carefully aspirated and replaced with 100 μL of vehicle (DMSO)/drug containing medium, with 5 replicated for each control/drug dilution. Cells were returned to the incubator for 48 hours.
(§1) For MTS Assay, medium was carefully aspirated and replaced with 100 μL of phenol red free medium. Then 20 μL of MTS reagent (Cell Titer 96 Aqueous Non-Radioactive Cell Proliferation Assay reagent—Promega) was added to each well. The plate was returned to incubator for 1 hour, then OD acquired at 490 nm in a plate reader. OD values were then analyzed, and the graph obtained using GraphPad Prism.

[9] = test system: H1792 xenograft tumor; assay: H1792 flank xenograft dose response; type: in vivo, NOD-SCID mice
Method: NOD-SCID mice (3 mice/group) were implanted with 10^6 H1792 cells s.c. in both flanks. When the tumors were palpable (day 11 post implantation), treatment was started and consisted of daily i.p. injections of vehicle (DMSO) or BZD-1 drug dissolved in DMSO for 7 days. Tumor size was measured every other day using a caliper. Tumor volume was calculated as follows: […]
At day 46 post tumor implantation, mice were euthanized following institutional IACUC procedures. Tumors from both flanks were resected, weighed, and average tumor mass for each group was calculated, plotted, and photographed.

[10] = test system: unmethylated GBM lines BT142-GFP and G43; assay: Spheroid assay; type: cell-based; details: BZD-1 + TMZ; BT142-GFP and G43 spheroids; qualitative
Method: Spheroid assays were carried out using two unmethylated GBM lines: BT142-GFP (FIG. 3A) and G43 (FIG. 3B) to qualitatively assess the effect of BZD-1+TMZ.

[11] = test system: H1792 human lung cancer cells; assay: MTS proliferation assay, DTX + 2.5 μM BZD-1; type: cell-based
Method: 10^3 H1792 cells/well in 100 μL of medium were plated in a 96 well plate and allowed to attach for 24 hrs. The next day, large volume of fresh medium containing 2.5 μM BZD-1 was prepared from 40 mM BZD-1 stock in DMSO. For Docetaxel (DTX) dilutions, either fresh medium was used for DTX only or 2.5 μM BZD-1 containing medium was used for DTX+2.5 μM BZD-1 treatment. Medium on cells was then aspirated and replaced by 100 μL of vehicle (DMSO)/drug containing media, with 5 replicated for each control/drug dilution. Cells were returned to the incubator for 48 hours.
as §1, with “was” for “was carefully”, “by” for “with”
10^3 H1792 cells/well in 100 μL of medium were plated in a 96 well plate and allowed to attach for 24 hrs. […]
For MTS Assay, medium was aspirated and replaced with 100 μL of phenol red free medium. […] The plate was returned to the incubator for 1 hour, then OD acquired at 490 nm in a plate reader. OD values were then analyzed, and the graph obtained using GraphPad Prism.

[12] = daily i.p. for 7 days, NOD-SCID mice

C#Cc1ccc2c(c1)C(c1ccccc1F)=NCC(=O)N2C [BZD-1, 7-ethynyl-5-(2-fluorophenyl)-1-methyl-1,3-dihydro-2H-benzo[e][1,4]diazepin-2-one]
Effect of combined therapy on TMZ resistance ([1]; BZD-1 + TMZ, unmethylated GBM cell lines): overcomes TMZ resistance | Synergy of BZD-1 and TMZ (Chou-Talay Combination Index Equation) ([1]; BZD-1 in combination with TMZ, GBM cells): act synergistically | Visible adverse effects [2]: no visible adverse effects | Clonogenic growth, combination with docetaxel [3]: work synergistically | Stable at room temperature [4]: up to 6 months | Breakdown products in human liver microsomes [5]: no breakdown products were found | solubility [6]: 10000 µg/mL (≈ 34.2 mM) | Time of penetration into the brain ([7]; brain): ≤ 5 min | Accumulation in brain extracellular fluid ([7]; brain extracellular fluid): 161.3 ng/mL | Proliferation of H1792 cells ([8]; 48 hours, in vitro): inhibits proliferation | IC50 ([8]; Homo sapiens, NCI-H1792, 48 hours): 4.5 to 6 µM | Most effective dose [9, 12]: 2.5 mg/kg | Tumor volume compared to vehicle [9, 12]: reduced tumor volume | Sedation in the animal model ([9]; doses higher than 2.5 mg/kg): sedating | Spheroid response to combination therapy [10]: significant disaggregation | Effect on docetaxel cytotoxicity ([11]; 2.5 μM BZD-1 + DTX, 48 hours, MTS): potentiates the cytotoxic effect of docetaxel | Combination Index (CI) ([11]; BZD-1 combined with DTX, H1792 cell growth in vitro): 0.6
